Measured values as given in EP0335662B1, “Peptides” (BRITISH TECHNOLOGY GROUP LIMITED, priority 1988, dated 1989).
“And” between values parts separate entries of the source, which are not always exact repeats. Equal entries are not always repeated. Where two headings read alike, the source gives them in different places. Non-standard residues stand in square brackets, D forms with d. Residues, ends and D or L forms follow the SMILES beside them.

What was measured:
[1] = test system: hyperalgesia evoked by PGE₂; assay: Rat paw pressure test: hyperalgesia evoked by PGE₂; set-up: species or system rats; conditions: in vivo
Method: (§1) Hyperalgesia was evaluated by the application of a constant pressure of 20 mmHg to the hind paws of rats (Wistar strain, male, weight 135 - 170g) which was discontinued when animals presented a characteristic freezing reaction (reaction time). The intensity of hyperalgesia was quantified as the variation of the reaction time (Δ reaction time, sec) obtained by subtracting the value measured 1,2,3 or 4h after administration of the hyperalgesic agent from the pre-injection control reaction time (zero time). The experimenter was unaware of the group treatments.
(§2) There were 5 animals per treatment group. […]

[2] = test system: hyperalgesia evoked by DbcAMP; assay: Rat paw pressure test: hyperalgesia evoked by DbcAMP; set-up: species or system rats; conditions: in vivo
Method: as §1
The effect of the tripeptides KPV and K(D)PV on hyperalgesia evoked in rats by DbcAMP was studied. Treatments were given ip, 1h before DbcAMP was injected into the paw (ipl). There were 5 animals per treatment group. Delta reaction times were measured 3h after DbcAMP. […] The control was DbcAMP (100»g/paw). […]

[3] = test system: hot plate (55°C) reaction time; assay: Standard hot plate (55°C) test; conditions: in vivo
Method: A standard hot plate (55°C) test was carried out. […]

[4] = test system: hyperalgesia evoked by IL-1β; conditions: cited from earlier work
[5] = test system: hyperalgesia evoked by IL-1β; assay: Modified Randall-Sellito rat paw pressure test: hyperalgesia evoked by IL-1β; assay type: in vivo, rats; conditions: 100 »g ipl, 30 minutes before 0.05U IL-1β ipl or ip
Method: as §1, §2

[6] = test system: human blood mononuclear cells (MNC); assay: PGE₂ release by blood mononuclear cells, radioimmunoassay; assay type: cell-based; conditions: in words
Method: The effect of K(D)PT and indomethacin on PGE₂ release by human blood mononuclear cells (MNC) was investigated. The MNC were isolated from buffy coat residues by density gradient centrifugation (Ficoll-hypaque, Sigma) and resuspended in RPMI 1640 culture medium (Gibco) + 2% inactivated foetal calf serum (Imperial Laboratories). […] Values are means of quadruplicates ± s.e.m.'s. PGE₂ concentrations were measured by radioimmunoassay (NEN Research Products).

[7] = test system: mice; conditions: administered to mice; Goerne et al 1982; cited from earlier work
[8] = test system: gastric lesions; assay: Gastric lesions after treatment; assay type: in vivo, mice; conditions: 32 mg/kg
[9] = test system: hot-plate test; conditions: injected into the brain; Herman et al 1985; cited from earlier work

CN1CC[C@]23c4c5ccc(O)c4O[C@H]2[C@@H](O)C=C[C@H]3[C@H]1C5 [Morphine, morphine]
change of delta reaction time vs control (= 100%) [1]: -63.7% | delta reaction time [1]: 6.1 ± 0.8 s | antagonism of hyperalgesia evoked by DbcAMP [2]: effective antagonist | change of delta reaction time vs control (= 100%) [2]: -64.0% | delta reaction time [2]: 6.2 ± 0.4 s | reaction time difference, hot plate (55°C) [3]: 3.52 s and 5.55 s | antagonism of on-going hyperalgesia ([4]; rat, in vivo): able to antagonise on-going hyperalgesia

COc1ccc2c(c1)c(CC(=O)O)c(C)n2C(=O)c1ccc(Cl)cc1 [Indomethacin, indomethacin]
effect of pretreatment on hyperalgesic response, contralateral paws (CL) [5]: no effect | effect of pretreatment on hyperalgesic response, treated paws (I) [5]: markedly attenuated | effect on production of PGE₂ by MNC [6]: abolished PGE₂ production

Arg-Pro
hyperalgesia on administration [7]: evoke hyperalgesia

C[C@@H](O)[C@H](NC(=O)[C@H]1CCCN1C(=O)[C@@H](N)CCCCN)C(=O)O [K(D)PT, Lys-D-Pro-Thr] (H-Lys-[dP]-Thr-OH)
gastric lesions [8]: No lesions were observed

Cc1c(N(C)CS(=O)(=O)O)c(=O)n(-c2ccccc2)n1C [dipyrone]
antagonism of on-going hyperalgesia ([4]; general statement on known analgesics, no data): able to antagonise on-going hyperalgesia

Lys-Pro
antinociceptive action in a hot-plate test [9]: elicited antinociceptive action | hyperalgesia on administration [7]: evoke hyperalgesia
